Laboratory results as given in patent US6492520B1, “Substituted pyrido-or pyrimido-containing 6,6- or 6,7-bicyclic derivatives” (Pfizer Inc, priority 1996, dated 2002).

melting point: 138 to 140 °C
Structure (SMILES): CCC(CC)N1CCNc2c1cc(C)nc2Oc1c(C)cc(C)cc1C [Example 4, 1-(1-Ethyl-propyl)-7-methyl-5-(2,4,6-trimethyl-phenoxy)-1,2,3,4-tetrahydro-pyrido[3,4-b]pyrazine]
